Measured values reported in patent US9493426B2, “Quinazolinone derivatives useful as FGFR kinase modulators” (priority 2013, dated 2016).

Columns and labels:
FGFR1 = target: T1, FGFR1 (Homo sapiens, UniProt P11362); test: Enzyme binding assay (KINOMEscan) FGFR1; details: FGFR1_pKd, pKd = -log Kd (M)
T1 construct: purchased DiscoveRx Corporation
Method: (§1) Enzyme Binding Assays (KINOMEscan®)
(§2) Kinase enzyme binding affinities of compounds disclosed herein were determined using the KINOMEscan® technology performed by DiscoveRx Corporation, San Diego, Calif., USA (www.kinomescan.com).

FGFR2 = target: T2, FGFR2 (Homo sapiens, UniProt P21802); test: Enzyme binding assay (KINOMEscan) FGFR2; details: pKd = -log Kd (M), read-out: FGFR2_pKd (converted)
T2 construct: purchased DiscoveRx Corporation
T2 sequence (P21802 22-821): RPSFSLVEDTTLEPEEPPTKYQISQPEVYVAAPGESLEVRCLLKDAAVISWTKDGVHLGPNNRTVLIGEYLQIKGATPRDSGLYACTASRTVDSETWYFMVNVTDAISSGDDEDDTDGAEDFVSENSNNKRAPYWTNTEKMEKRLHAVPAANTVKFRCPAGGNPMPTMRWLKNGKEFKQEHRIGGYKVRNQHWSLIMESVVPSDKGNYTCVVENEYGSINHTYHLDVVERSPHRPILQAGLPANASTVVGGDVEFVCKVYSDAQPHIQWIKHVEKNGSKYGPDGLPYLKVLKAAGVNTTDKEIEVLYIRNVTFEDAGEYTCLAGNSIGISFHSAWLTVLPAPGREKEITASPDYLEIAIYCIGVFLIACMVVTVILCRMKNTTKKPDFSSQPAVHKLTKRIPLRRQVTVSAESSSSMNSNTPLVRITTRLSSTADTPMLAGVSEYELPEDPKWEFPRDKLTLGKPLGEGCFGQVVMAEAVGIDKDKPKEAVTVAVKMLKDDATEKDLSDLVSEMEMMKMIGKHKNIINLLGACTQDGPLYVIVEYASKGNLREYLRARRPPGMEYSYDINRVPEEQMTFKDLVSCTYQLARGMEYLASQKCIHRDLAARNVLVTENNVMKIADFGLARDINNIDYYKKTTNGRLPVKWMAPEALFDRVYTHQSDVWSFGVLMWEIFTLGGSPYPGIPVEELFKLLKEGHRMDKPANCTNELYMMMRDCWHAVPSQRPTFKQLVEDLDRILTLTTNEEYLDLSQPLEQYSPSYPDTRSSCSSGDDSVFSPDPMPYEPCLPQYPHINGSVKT
Method: as §1, §2

FGFR4 = target: T3, FGFR4 (Homo sapiens, UniProt P22455); test: Enzyme binding assay (KINOMEscan) FGFR4; details: pKd = -log Kd (M), read-out: FGFR4_pKd (converted)
T3 construct: purchased DiscoveRx Corporation
T3 sequence (P22455 22-802): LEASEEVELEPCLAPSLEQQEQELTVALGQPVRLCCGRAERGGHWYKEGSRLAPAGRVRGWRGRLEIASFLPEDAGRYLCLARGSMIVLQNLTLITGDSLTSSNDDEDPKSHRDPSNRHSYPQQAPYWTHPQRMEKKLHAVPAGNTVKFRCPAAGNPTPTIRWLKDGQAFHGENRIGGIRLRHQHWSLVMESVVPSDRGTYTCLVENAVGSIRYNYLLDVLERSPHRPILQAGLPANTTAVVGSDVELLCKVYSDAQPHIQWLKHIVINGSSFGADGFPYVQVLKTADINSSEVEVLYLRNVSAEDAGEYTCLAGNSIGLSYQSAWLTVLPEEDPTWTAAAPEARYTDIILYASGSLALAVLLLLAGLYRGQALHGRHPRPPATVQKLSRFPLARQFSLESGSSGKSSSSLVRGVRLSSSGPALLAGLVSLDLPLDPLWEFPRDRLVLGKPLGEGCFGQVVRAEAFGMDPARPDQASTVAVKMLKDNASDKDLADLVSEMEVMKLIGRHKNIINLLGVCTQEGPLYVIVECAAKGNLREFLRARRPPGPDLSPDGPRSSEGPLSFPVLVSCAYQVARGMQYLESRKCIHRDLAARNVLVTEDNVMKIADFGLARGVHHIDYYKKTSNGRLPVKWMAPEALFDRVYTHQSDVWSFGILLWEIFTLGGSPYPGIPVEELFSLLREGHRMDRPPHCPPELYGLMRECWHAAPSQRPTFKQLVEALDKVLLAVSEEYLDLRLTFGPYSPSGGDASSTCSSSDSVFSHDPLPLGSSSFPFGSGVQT
Method: as §1, §2

VEGFR2 = target: T4, VEGFR2 (Homo sapiens, UniProt P35968); test: Enzyme binding assay (KINOMEscan) VEGFR2; details: pKd = -log Kd (M), read-out: VEGFR2_pKd (converted)
T4 construct: purchased DiscoveRx Corporation
T4 sequence (P35968 20-1356): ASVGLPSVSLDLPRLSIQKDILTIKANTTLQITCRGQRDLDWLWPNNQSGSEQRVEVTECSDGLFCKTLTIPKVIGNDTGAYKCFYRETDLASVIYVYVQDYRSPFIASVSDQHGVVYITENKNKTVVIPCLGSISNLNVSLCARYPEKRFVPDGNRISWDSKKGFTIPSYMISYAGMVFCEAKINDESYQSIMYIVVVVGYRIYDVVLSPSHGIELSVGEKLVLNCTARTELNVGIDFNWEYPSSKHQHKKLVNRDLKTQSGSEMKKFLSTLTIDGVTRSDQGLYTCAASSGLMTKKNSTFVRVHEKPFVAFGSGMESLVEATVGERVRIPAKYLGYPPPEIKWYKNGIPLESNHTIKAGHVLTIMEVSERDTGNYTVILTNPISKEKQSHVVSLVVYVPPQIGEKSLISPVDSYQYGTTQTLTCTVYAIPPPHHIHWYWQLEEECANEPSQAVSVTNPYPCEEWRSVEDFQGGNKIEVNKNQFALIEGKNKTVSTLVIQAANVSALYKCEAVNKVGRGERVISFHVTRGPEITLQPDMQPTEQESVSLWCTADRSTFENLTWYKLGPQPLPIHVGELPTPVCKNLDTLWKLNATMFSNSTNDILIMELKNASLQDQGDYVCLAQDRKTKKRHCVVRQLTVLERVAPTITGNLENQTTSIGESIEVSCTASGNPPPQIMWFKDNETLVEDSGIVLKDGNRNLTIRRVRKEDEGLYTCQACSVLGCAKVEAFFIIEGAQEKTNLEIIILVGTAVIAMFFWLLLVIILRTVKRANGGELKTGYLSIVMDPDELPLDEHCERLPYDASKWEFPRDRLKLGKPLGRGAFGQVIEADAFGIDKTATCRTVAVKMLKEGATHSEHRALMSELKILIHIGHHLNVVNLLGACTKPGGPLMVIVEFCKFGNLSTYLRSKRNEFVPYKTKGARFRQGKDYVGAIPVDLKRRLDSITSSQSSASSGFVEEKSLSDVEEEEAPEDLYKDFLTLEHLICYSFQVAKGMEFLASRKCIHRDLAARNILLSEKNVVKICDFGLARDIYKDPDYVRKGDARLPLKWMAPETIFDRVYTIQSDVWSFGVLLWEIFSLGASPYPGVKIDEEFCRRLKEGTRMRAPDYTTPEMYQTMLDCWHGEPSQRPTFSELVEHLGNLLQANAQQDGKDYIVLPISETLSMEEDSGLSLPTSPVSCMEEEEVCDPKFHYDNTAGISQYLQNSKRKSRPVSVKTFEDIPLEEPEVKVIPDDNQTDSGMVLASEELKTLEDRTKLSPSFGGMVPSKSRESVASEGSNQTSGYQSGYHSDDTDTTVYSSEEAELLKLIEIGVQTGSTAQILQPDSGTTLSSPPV
Method: as §1, §2

FGFR3 = target: T5, FGFR3 (Homo sapiens, UniProt P22607); test: Enzyme binding assay (KINOMEscan) FGFR3; details: pKd = -log Kd (M), read-out: FGFR3_pKd (converted)
T5 construct: purchased DiscoveRx Corporation
T5 sequence (P22607 23-806): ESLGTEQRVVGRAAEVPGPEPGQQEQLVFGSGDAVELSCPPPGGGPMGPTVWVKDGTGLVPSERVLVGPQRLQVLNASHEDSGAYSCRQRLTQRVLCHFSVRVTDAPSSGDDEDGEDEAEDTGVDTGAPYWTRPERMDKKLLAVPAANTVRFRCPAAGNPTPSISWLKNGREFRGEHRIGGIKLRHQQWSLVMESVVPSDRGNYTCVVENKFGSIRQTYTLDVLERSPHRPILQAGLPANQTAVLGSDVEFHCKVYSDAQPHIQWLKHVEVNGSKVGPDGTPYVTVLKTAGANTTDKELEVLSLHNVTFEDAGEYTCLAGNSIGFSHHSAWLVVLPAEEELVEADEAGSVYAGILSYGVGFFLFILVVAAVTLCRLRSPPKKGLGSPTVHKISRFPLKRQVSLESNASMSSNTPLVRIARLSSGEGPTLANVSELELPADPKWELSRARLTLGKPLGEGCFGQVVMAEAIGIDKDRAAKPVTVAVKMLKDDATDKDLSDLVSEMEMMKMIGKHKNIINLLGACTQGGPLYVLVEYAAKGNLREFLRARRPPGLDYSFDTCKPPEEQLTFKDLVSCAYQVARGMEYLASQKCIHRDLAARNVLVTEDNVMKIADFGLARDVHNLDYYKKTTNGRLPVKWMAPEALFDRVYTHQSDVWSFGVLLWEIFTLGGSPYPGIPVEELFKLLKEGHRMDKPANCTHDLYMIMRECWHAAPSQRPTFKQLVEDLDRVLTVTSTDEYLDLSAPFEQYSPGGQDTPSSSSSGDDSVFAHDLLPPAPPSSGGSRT
Method: as §1, §2

T1 sequence (P11362 22-822): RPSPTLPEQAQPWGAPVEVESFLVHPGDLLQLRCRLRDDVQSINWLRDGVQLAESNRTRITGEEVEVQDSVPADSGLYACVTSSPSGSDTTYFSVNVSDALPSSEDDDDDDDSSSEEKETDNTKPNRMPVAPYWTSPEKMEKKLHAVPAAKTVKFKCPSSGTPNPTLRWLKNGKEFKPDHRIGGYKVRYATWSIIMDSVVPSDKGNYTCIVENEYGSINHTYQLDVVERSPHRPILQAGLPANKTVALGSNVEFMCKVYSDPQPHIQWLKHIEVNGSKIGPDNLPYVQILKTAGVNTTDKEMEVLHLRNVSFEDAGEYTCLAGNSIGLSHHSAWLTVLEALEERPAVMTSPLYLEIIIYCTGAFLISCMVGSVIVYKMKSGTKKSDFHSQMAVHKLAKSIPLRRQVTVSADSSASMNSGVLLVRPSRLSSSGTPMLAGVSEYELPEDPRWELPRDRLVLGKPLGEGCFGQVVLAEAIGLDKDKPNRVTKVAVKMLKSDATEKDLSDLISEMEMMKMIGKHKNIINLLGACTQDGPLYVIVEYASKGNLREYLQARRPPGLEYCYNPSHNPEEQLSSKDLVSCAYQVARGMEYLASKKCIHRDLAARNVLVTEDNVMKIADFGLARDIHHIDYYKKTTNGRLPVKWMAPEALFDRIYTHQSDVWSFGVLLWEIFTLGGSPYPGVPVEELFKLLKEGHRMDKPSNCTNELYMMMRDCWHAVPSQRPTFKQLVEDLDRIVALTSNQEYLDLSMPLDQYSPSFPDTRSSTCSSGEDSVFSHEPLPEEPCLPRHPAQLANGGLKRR

Row | Structure (SMILES) | Kd (FGFR1) | Kd (FGFR2) | Kd (FGFR4) | Kd (VEGFR2) | melting point | Kd (FGFR3)
1 | COc1cc(OC)cc(N(CCO)c2ccc3ncn(C4CCOCC4)c(=O)c3c2)c1 [Compound 64] | 6.31e-07 M | 3.98e-07 M | > 3.16e-06 M | > 3.16e-06 M | 204 °C | 
2 | COc1cc(OC)c(F)c(N(CCNC(C)C)c2ccc3ncn(-c4cccnc4)c(=O)c3c2)c1 [Compound 33] | 5.01e-09 M | 1.58e-08 M | 2.51e-08 M | 1.58e-06 M | 133 °C | 7.94e-09 M
3 | COc1cc(OC)c(F)c(N(Cc2nccn2S(=O)(=O)N(C)C)c2ccc3ncn(C4CCN(C(=O)OC(C)(C)C)CC4)c(=O)c3c2)c1F |  |  |  |  | 168 °C | 
4 | COc1cc(OC)cc(N(CCO)c2ccc3ncn(C4CCNCC4)c(=O)c3c2)c1 [Compound 47] | > 3.16e-06 M | > 3.16e-06 M | > 3.16e-06 M | > 3.16e-06 M | 165 °C | > 3.16e-06 M
5 | CNCCN(c1ccc2ncn(C3CCNCC3)c(=O)c2c1)c1cc(OC)cc(OC)c1F [Compound 58] | 3.16e-07 M | 3.98e-07 M | 2e-06 M | > 3.16e-06 M | 176 °C | 6.31e-07 M
6 | CNCCN(c1cc(OC)cc(OC)c1)c1ccc2ncn(C3CCNCC3)c(=O)c2c1 [Compound 59] |  | > 3.16e-06 M | > 3.16e-06 M | > 3.16e-06 M | 139 °C | > 3.16e-06 M
7 | COc1cc(OC)c(F)c(N(CCCNC(C)C)c2ccc3ncn(C4CCNCC4)c(=O)c3c2)c1 |  |  |  |  | 140 °C | 
8 | COc1cc(OC)c(F)c(N(Cc2nccn2S(=O)(=O)N(C)C)c2ccc3ncn(-c4cccnc4)c(=O)c3c2)c1F [Compound 35] | 5.01e-08 M | 1.58e-08 M | 1.26e-07 M | 1.26e-06 M | 128 °C | 3.98e-08 M
9 | COc1cc(OC)c(F)c(N(CCO)c2ccc3ncn(-c4ccncc4)c(=O)c3c2)c1 [Compound 38] | 1e-07 M | 2e-08 M | 1.58e-07 M | > 3.16e-06 M | 209 °C | 3.16e-08 M
10 | CNCCN(c1ccc2ncn(C3CCNCC3)c(=O)c2c1)c1c(F)c(OC)cc(OC)c1F [Compound 57] | 3.16e-08 M | 3.98e-08 M | 1.58e-07 M | 2e-06 M |  | 6.31e-08 M
11 | COc1cc(OC)c(F)c(N(CCO)c2ccc3ncn(-c4cccnc4)c(=O)c3c2)c1F [Compound 29] | 1.58e-08 M | 3.16e-09 M | 5.01e-08 M | 6.31e-07 M | 112 °C | 6.31e-09 M
12 | COc1cc(OC)c(F)c(N(Cc2nccn2S(=O)(=O)N(C)C)c2ccc3ncn(-c4cccnc4)c(=O)c3c2)c1 [Compound 36] | 1.58e-07 M | 1e-07 M | 1.26e-06 M | > 3.16e-06 M | 108 °C | 2.51e-07 M
13 | CNCCN(c1ccc2ncn(C3CCOCC3)c(=O)c2c1)c1cc(OC)cc(OC)c1F [Compound 70] | 3.16e-08 M | 3.98e-08 M | 1e-07 M | > 3.16e-06 M | 178 °C | 7.94e-08 M
14 | COc1cc(OC)c(F)c(N(CCO)c2ccc3ncn(-c4cncnc4)c(=O)c3c2)c1 [Compound 74] | 7.94e-07 M | 1.26e-07 M | 2e-06 M | > 3.16e-06 M | 200 °C | 3.98e-07 M
15 | COc1cc(OC)c(F)c(N(CCCNC(C)C)c2ccc3ncn(C4CCNCC4)c(=O)c3c2)c1 [Compound 61′] | 5.01e-08 M | 2e-08 M | 2e-07 M | > 3.16e-06 M |  | 6.31e-08 M
16 | COc1cc(OC)c(F)c(N(CCO)c2ccc3ncn(-c4cccnc4)c(=O)c3c2)c1 [Compound 30] | 2.51e-07 M | 3.98e-08 M | 5.01e-07 M | > 3.16e-06 M | 186 °C | 6.31e-08 M
17 | COc1cc(OC)c(F)c(N(CCCO)c2ccc3ncn(C4CCNCC4)c(=O)c3c2)c1F [Compound 53] | 5.01e-08 M | 3.16e-08 M | 2e-07 M | > 3.16e-06 M | 184 °C | 6.31e-08 M
18 | COc1cc(OC)cc(/C(=C\C#N)c2ccc3ncn(-c4cnn(C)c4)c(=O)c3c2)c1 [Compound 49] | 2e-06 M | 3.98e-07 M | > 3.16e-06 M | > 3.16e-06 M | 217 °C | 7.94e-07 M
19 | COc1cc(OC)cc(N(Cc2nccn2S(=O)(=O)N(C)C)c2ccc3ncn(C4CCOCC4)c(=O)c3c2)c1 [Compound 68] | 1.26e-06 M |  | > 3.16e-06 M | > 3.16e-06 M |  | > 3.16e-06 M
